In PMC4306947, “Synthesis and Antiproliferative Activity of Thiazolyl-bis-pyrrolo[2,3-b]pyridines and Indolyl-thiazolyl-pyrrolo[2,3-c]pyridines, Nortopsentin Analogues” (Marine Drugs, 2015):

Legend:
CCRF-CEM = test: NCI-60 in vitro tumor cell screen, CCRF-CEM; assay type: cell-based; details: Homo sapiens, Leukemia
Description: (§1) All the synthesized thiazoles 1a–l, 2a–j, 3a–f and 4a–f were evaluated by the National Cancer Institute (Bethesda MD) for cytotoxicity against the NCI-60 cell line panel using standard protocols. Initially, all derivatives were tested at a single dose (10^−5 M) on the full panel of approximately 60 human tumor cell lines derived from 9 human cancer cell types, that have been grouped in disease sub-panels including leukemia, non-small-cell lung, colon, central nervous system (CNS), melanoma, ovarian, renal, prostate and breast cancers (data not shown). Compounds 1k and 4c were further selected for full evaluation at five concentration levels (10^−4–10^−8 M).
(§2) The antitumor activity of compounds 1k and 4c was given by three parameters for each cell line: GI50 (GI50 is the molar concentration of the compound that inhibits 50% net cell growth), TGI (TGI is the molar concentration of the compound leading to total inhibition of net cell growth), and LC50 (LC50 is the molar concentration of the compound that induces 50% net cell death). The average values of mean graph midpoint (MG_MID) were calculated for each of these parameters.

MOLT-4 = test: NCI-60 in vitro tumor cell screen, MOLT-4; assay type: cell-based; details: Homo sapiens; MOLT-4, Leukemia
Description: as §1, §2

A549/ATCC = test: NCI-60 in vitro tumor cell screen, A549/ATCC; assay type: cell-based; details: Homo sapiens, Non-Small Cell Lung Cancer
Description: as §1, §2

EKVK = test: NCI-60 in vitro tumor cell screen, EKVK; assay type: cell-based; details: Homo sapiens, Non-Small Cell Lung Cancer
Description: as §1, §2

HOP-62 = test: NCI-60 in vitro tumor cell screen, HOP-62; assay type: cell-based; details: Homo sapiens; HOP-62, Non-Small Cell Lung Cancer
Description: as §1, §2

HOP-92 = test: NCI-60 in vitro tumor cell screen, HOP-92; assay type: cell-based; details: Homo sapiens; HOP-92, Non-Small Cell Lung Cancer
Description: as §1, §2

NCI-H226 = test: NCI-60 in vitro tumor cell screen, NCI-H226; assay type: cell-based; details: Homo sapiens; NCI-H226, Non-Small Cell Lung Cancer
Description: as §1, §2

NCI-H460 = test: NCI-60 in vitro tumor cell screen, NCI-H460; assay type: cell-based; details: Homo sapiens; NCI-H460, Non-Small Cell Lung Cancer
Description: as §1, §2

NCI-H522 = test: NCI-60 in vitro tumor cell screen, NCI-H522; assay type: cell-based; details: Homo sapiens; NCI-H522, Non-Small Cell Lung Cancer
Description: as §1, §2

HCC-2998 = test: NCI-60 in vitro tumor cell screen, HCC-2998; assay type: cell-based; details: Homo sapiens; HCC-2998, Colon Cancer
Description: as §1, §2

HCT-15 = test: NCI-60 in vitro tumor cell screen, HCT-15; assay type: cell-based; details: Homo sapiens; HCT-15, Colon Cancer
Description: as §1, §2

HT29 = test: NCI-60 in vitro tumor cell screen, HT29; assay type: cell-based; details: Homo sapiens, HT-29; HT29, Colon Cancer
Description: as §1, §2

SW-620 = test: NCI-60 in vitro tumor cell screen, SW-620; assay type: cell-based; details: Homo sapiens; SW-620, Colon Cancer
Description: as §1, §2

U251 = test: NCI-60 in vitro tumor cell screen, U251; assay type: cell-based; details: Homo sapiens, U-251; U251, CNS Cancer
Description: as §1, §2

LOX IMVI = test: NCI-60 in vitro tumor cell screen, LOX IMVI; assay type: cell-based; details: Homo sapiens, Melanoma
Description: as §1, §2

M14 = test: NCI-60 in vitro tumor cell screen, M14; assay type: cell-based; details: Homo sapiens; M14, Melanoma
Description: as §1, §2

MDA-MB-435 = test: NCI-60 in vitro tumor cell screen, MDA-MB-435; assay type: cell-based; details: Homo sapiens; MDA-MB-435, Melanoma
Description: as §1, §2

SK-MEL-2 = test: NCI-60 in vitro tumor cell screen, SK-MEL-2; assay type: cell-based; details: Homo sapiens; SK-MEL-2, Melanoma
Description: as §1, §2

UACC-62 = test: NCI-60 in vitro tumor cell screen, UACC-62; assay type: cell-based; details: Homo sapiens; UACC-62, Melanoma
Description: as §1, §2

OVCAR-3 = test: NCI-60 in vitro tumor cell screen, OVCAR-3; assay type: cell-based; details: Homo sapiens; OVCAR-3, Ovarian Cancer
Description: as §1, §2

NCI/ADR-RES = test: NCI-60 in vitro tumor cell screen, NCI/ADR-RES; assay type: cell-based; details: Homo sapiens, Ovarian Cancer
Description: as §1, §2

SK-OV-3 = test: NCI-60 in vitro tumor cell screen, SK-OV-3; assay type: cell-based; details: Homo sapiens; SK-OV-3, Ovarian Cancer
Description: as §1, §2

A498 = test: NCI-60 in vitro tumor cell screen, A498; assay type: cell-based; details: Homo sapiens; A498, Renal Cancer
Description: as §1, §2

ACHN = test: NCI-60 in vitro tumor cell screen, ACHN; assay type: cell-based; details: Homo sapiens, Renal Cancer
Description: as §1, §2

DU-145 = test: NCI-60 in vitro tumor cell screen, DU-145; assay type: cell-based; details: Homo sapiens; DU-145, Prostate Cancer
Description: as §1, §2

MDA-MB-231/ATCC = test: NCI-60 in vitro tumor cell screen, MDA-MB-231/ATCC; assay type: cell-based; details: Homo sapiens, Breast Cancer
Description: as §1, §2

BT-549 = test: NCI-60 in vitro tumor cell screen, BT-549; assay type: cell-based; details: Homo sapiens; BT-549, Breast Cancer
Description: as §1, §2

T-47D = test: NCI-60 in vitro tumor cell screen, T-47D; assay type: cell-based; details: Homo sapiens, T47D, Breast Cancer
Description: as §1, §2

HCT-116 cells [1] = test: Cell cycle analysis by flow cytometry (propidium iodide); assay type: cell-based, human; details: 24 h, concentrations above and below GI50
Description: Cell cycle stage was analyzed by flow cytometry. HCT-116 cells (5.0 × 10^4 cells/cm^2) were seeded in triplicate in 24-wells culture plates. After an overnight incubation, the cells were washed with fresh medium and incubated with compounds 1k and 4c in RPMI for 24 h. Then cells were harvested by trypsinization. Aliquots of 1 × 10^6 cells were washed with PBS and incubated in the dark in a PBS solution containing 20 μg/mL propidium iodide (PI) and 200 μg/mL RNase, for 30 min, at room temperature. Then samples of at least 1.0 × 10^4 cells were subjected to fluorescence-activated cell sorting (FACS) analysis by Epics XL™ flow cytometer using Expo32 software (Beckman Coulter, Fullerton, CA, USA).

HCT-116 cells [2] = test: Phosphatidylserine exposure, Annexin V-FITC/PI flow cytometry; assay type: cell-based, human; details: 24 h
Description: The apoptosis-induced PS externalization to the cell surface was measured by flow cytometry by double staining with Annexin V-Fluorescein isothiocyanate (Annexin V-FITC)/propidium iodide (PI). Annexin V binding to phosphatidylserine is used to identify the earliest stage of apoptosis. […] After 24 h treatment, HCT-116 cells were harvested by trypsinization and adjusted at 1.0 × 10^6 cells/mL with combining buffer according to the manufacturer instructions (eBioscience, San Diego, CA, USA). One hundred μL of cell suspensions were added to a new tube, and incubated with Annexin V-FITC and PI solution at room temperature in the dark for 15 min. Then samples of at least 1.0 × 10^4 cells were subjected to FACS analysis using appropriate 2-bidimensional gating method.

Compound	GI50 (CCRF-CEM)	GI50 (MOLT-4)	GI50 (A549/ATCC)	GI50 (EKVK)	GI50 (HOP-62)	GI50 (HOP-92)	GI50 (NCI-H226)	GI50 (NCI-H460)	GI50 (NCI-H522)	GI50 (HCC-2998)	GI50 (HCT-15)	GI50 (HT29)	GI50 (SW-620)	GI50 (U251)	GI50 (LOX IMVI)	GI50 (M14)	GI50 (MDA-MB-435)	GI50 (SK-MEL-2)	GI50 (UACC-62)	GI50 (OVCAR-3)	other results
Cn1cc(-c2csc(-c3c[nH]c4ncccc34)n2)c2cc(Br)cnc21 [Compound 1k, 5-Bromo-1-methyl-3-[2-(1H-pyrrolo[2,3-b]pyridin-3-yl)-1,3-thiazol-4-yl]-1H-pyrrolo[2,3-b]pyridine]	6810 nM	> 100000 nM	2590 nM	1270 nM	2390 nM	5030 nM	1970 nM	2980 nM	4860 nM	> 100000 nM	13700 nM	6750 nM	4460 nM	2700 nM	4260 nM	4060 nM	3170 nM	19800 nM	3470 nM	2910 nM	GI50 (NCI/ADR-RES): 3880 nM; GI50 (SK-OV-3): 3250 nM; GI50 (A498): 10900 nM; GI50 (ACHN): 2350 nM; GI50 (DU-145): 3510 nM; GI50 (MDA-MB-231/ATCC): 3020 nM; GI50 (BT-549): 20500 nM; GI50 (T-47D): 1800 nM; alteration of cell cycle distribution (HCT-116 cells [1]): dose-dependent accumulation of cells in G2/M phase; apoptosis (Annexin V-FITC/PI staining) (HCT-116 cells [2]): percentage of cells in late apoptosis increased
Clc1nccc2c(-c3csc(-c4c[nH]c5ccc(Br)cc45)n3)c[nH]c12 [Compound 4c, 3-[2-(5-Bromo-1H-indol-3-yl)-1,3-thiazol-4-yl]-7-chloro-1H-pyrrolo[2,3-c]pyridine]	3160 nM	3020 nM	3830 nM	3110 nM	2110 nM	2430 nM	2400 nM	2160 nM	2280 nM	2220 nM	1400 nM	2660 nM	1920 nM	2050 nM	1630 nM	2220 nM	3430 nM	4090 nM	2190 nM	3450 nM	GI50 (NCI/ADR-RES): 2710 nM; GI50 (SK-OV-3): 2780 nM; GI50 (A498): 1560 nM; GI50 (ACHN): 2020 nM; GI50 (DU-145): 1760 nM; GI50 (MDA-MB-231/ATCC): 1680 nM; GI50 (BT-549): 4700 nM; GI50 (T-47D): 3120 nM; alteration of cell cycle distribution (HCT-116 cells [1]): dose-dependent accumulation of cells in G1 phase; apoptosis (Annexin V-FITC/PI staining) (HCT-116 cells [2]): evident only at high concentrations (GI70)
